# According to patent US6331565A, “Dicaffeoylquinic acid for treating hepatitis B and the diseases associated with retrovirus, and the new caffeoylquinic acid derivatives” (Institute of Radiation Medicine Academy of Military Medical …, priority 1996, dated 2001):
# Entries after “also recorded” stand apart in the source; their conditions may differ. Where two headings read alike, the source gives them in different places.
# Columns and labels:
# [1] = molecular target: T1, HBV DNA polymerase (Hepatitis B virus genotype D subtype ayw, UniProt P03156); assay: HBV DNA polymerase assay; format: biochemical
# T1 construct: HBV DNA polymerase in viral particles; host or cells: viral particles
# T1 sequence (P03156 whole entry): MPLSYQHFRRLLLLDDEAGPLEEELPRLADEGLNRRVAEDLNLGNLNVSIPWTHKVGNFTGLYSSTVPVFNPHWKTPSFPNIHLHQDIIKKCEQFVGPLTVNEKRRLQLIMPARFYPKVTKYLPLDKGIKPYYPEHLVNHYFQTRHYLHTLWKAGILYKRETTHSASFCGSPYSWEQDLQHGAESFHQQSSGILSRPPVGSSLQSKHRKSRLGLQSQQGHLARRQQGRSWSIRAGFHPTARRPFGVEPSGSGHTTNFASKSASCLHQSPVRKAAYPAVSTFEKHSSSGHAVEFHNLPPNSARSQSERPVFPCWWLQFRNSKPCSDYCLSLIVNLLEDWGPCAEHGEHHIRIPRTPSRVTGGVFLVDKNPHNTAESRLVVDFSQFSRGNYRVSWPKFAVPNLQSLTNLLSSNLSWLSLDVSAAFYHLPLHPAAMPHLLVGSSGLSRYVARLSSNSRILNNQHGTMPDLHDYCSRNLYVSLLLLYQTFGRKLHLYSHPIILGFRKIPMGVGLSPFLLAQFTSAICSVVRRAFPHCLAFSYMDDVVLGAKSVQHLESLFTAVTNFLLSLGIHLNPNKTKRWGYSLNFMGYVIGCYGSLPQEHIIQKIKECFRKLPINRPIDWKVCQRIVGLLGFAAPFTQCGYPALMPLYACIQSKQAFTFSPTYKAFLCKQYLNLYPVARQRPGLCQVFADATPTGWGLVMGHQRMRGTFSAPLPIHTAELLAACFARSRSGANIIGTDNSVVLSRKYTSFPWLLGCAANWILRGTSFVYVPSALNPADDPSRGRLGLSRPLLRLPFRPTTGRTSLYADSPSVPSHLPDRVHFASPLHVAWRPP
# Protocol: Assay was performed as described by Hantz (Antiviral Res 4(1984) 187-199) with minor modification. The Reaction mixture consisted of HBV DNA polymerase in viral particles in 200 mmol.l^-1 of Tris-HCl pH 7.6, 200 mmol.l^-1 of NH4 Cl. 50 mmol.l^-1 of MgCl2, 10 mmol.l^-1 of 2-mercaptoethanol, 2% Nonidet P-40 and 300 μmol.l^-1 concentrations of deoxynucleotide triphosphates except for [^3 H]dTTP, which was included in the assay at 20 μci.ml^-1. […] The mixtures were incubated at 37° C. for 4 h prior to spotting on Whatman No.3 filter paper which was washed 4 times with cold 5% trichloroacitic acid, then with ethanol. The HBV DNA polymerase activity as measure of the incorperation of the radionucleotide into the viral DNA was counted in a Recbeta (LKB)scintilation counter.
# [2] = tested on: 2.2.15 cells; assay: Cytotoxicity in 2.2.15 cells (MTT); format: cell-based
# Protocol: (§1) The cultures were passenged by trypsinization every 4 days.
# The viability of cells was determined by MTT.
# [3] = tested on: HBeAg; assay: microbe, parasite or virus in culture; format: cell-based, HBV; conditions: Hepatitis B virus; for inhibition at 7.81 µg/mL / inhibition at 15.63 µg/mL / inhibition at 31.25 µg/mL / inhibition at 62.5 µg/mL / inhibition at 125 µg/mL / inhibition at 250 µg/mL: read-out: HBeAg Inhibit rate (%)
# Protocol: as §1
# (§2) HBsAg and HBeAg in the culture medium were determined according to the protocol respectively. The culture medium (200 μl) was absorbed on beads containing antibody to HBsAg/HBeAg in the presence of the conjugate. After overnight incubation, the beads were washed 6 times with […] PBS containing 0.05% Tween-80 and incubated with 200 μl of [^125 I] anti-HBs(Hbe) overnight. The beads were washed 6 times as above. The amounts HBsAg/HBeAg as measure of cpm of [^125 I] labeled immunocomplex was counted on γ-counter.
# [4] = tested on: HBsAg; assay: microbe, parasite or virus in culture; format: cell-based, HBV; conditions: Hepatitis B virus; for inhibition at 7.81 µg/mL / inhibition at 15.63 µg/mL / inhibition at 31.25 µg/mL / inhibition at 62.5 µg/mL / inhibition at 125 µg/mL / inhibition at 250 µg/mL: read-out: HBsAg Inhibit rate (%)
# Protocol: as §1, §2
# [5] = Tolerance and general health in ducks; conditions: duck, in vivo; preliminary results; read-out: maximal tolerance dose in duck
# [6] = tested on: MT4 cells; assay: Cytotoxicity in uninfected MT4 cells (MTT); format: cell-based, human; conditions: 1000 μg.ml^-1, MTT
# Protocol: A human T-cell leukemia cell line. MT4 cells, was used in this study. It was maintained in RPMI-1640 medium supplemented with 10% FCS. 100 U/ml of penicillin, and 100 μg/ml of streptomycin at 37° C. in a humidified atmosphere of 5% CO2. Cell cultures were split into fresh medium every 4 days.
# After 4 h, 100 μl of solvent (10% Triton X-100 and 0.4% HCl isopropanol)was added to cultures to solubilizes formazan. After an overnight incubation, the absorbency of each well was measured using a microplate reader (Bio-Rad, model 450) at 560 nm.
# [7] = tested on: lymphocyte proliferation induced by Con A; conditions: mice infected with MuLV
# Protocol: mice. Five-wk-old female C57BL/6 mice were used throughout the experiments. All mice were housed in sterile cages in a room supplied with filtrated air. They were given pelleted food and chlorinated water ad libitum.
# Infection with LP-BM5 MuLV. Cell-free supernatants of LP-BM5 MULV were prepared by cocultivating G6 SC-1 clones with normal SC-1 cells for 5 days. Mice were inoculated intraperitoneally with 150 μl of stock solution containing 10^3,4×C plaque-forming units and 10^2,3 Mink-cell focks-forming units per […].
# Then, the spleens were collected. Cell suspensions were prepared by repeated passage of whole spleen through a pipette, the capsule and debris were allowed to settle, and the supernatants containing cells were collected and washed twice in PBS. […] Incubation continued for 16 hr, then cells were collected on filter that was determined by a scintillation counter.
structure (smiles),measurement,setting,value
"O=C(/C=C/c1ccc(O)c(O)c1)OC1CC(OC(=O)/C=C/c2ccc(O)c(O)c2)(C(=O)O)CC(O)C1O (stereo not drawn) [Compound A, 1,5-di-O-caffeoylquinic acid]",IC50,[1],59.3 µM
same,inhibitory effect on HBV DNAp,[1],significant dose-dependent inhibitory effect
same,cpm,[1]; 1 μg/ml,9856 ± 201 cpm
same,cpm,[1]; 10 μg/ml,7990 ± 79 cpm
same,cpm,[1]; 100 μg/ml,3522 ± 51 cpm
same,cpm,[1]; 1000 μg/ml,1983 ± 159 cpm
same,inhibition at 1 µg/mL,[1]; read-out: Inhibitory rate (%),11.2 ± 1.9%
same,inhibition at 10 µg/mL,[1]; read-out: Inhibitory rate (%),30.3 ± 0.8%
same,inhibition at 100 µg/mL,[1]; read-out: Inhibitory rate (%),68.4 ± 0.5%
same,inhibition at 1000 µg/mL,[1]; read-out: Inhibitory rate (%),82.3 ± 1.5%
same,toxicity to 2.2.15 cells,[2]; 1.0 μg.ml^-1,did not show toxicity
same,harmful effects on 2.2.15 cells,[2]; 500 μg/ml,no obvious harmful effects
same,inhibition at 7.81 µg/mL,[3]; 96 h,8.94 ± 4.29%
same,inhibition at 15.63 µg/mL,[3]; 96 h,19.1 ± 3.89%
same,inhibition at 31.25 µg/mL,[3]; 96 h,34.5 ± 6.66%
same,inhibition at 62.5 µg/mL,[3]; 96 h,41 ± 3.68%
same,inhibition at 125 µg/mL,[3]; 96 h,47.4 ± 1.09%
same,inhibition at 250 µg/mL,[3]; 96 h,64.2 ± 2.03%
same,inhibition at 7.81 µg/mL,[3]; 288 h,15.9 ± 2.4%
same,inhibition at 15.63 µg/mL,[3]; 288 h,27.8 ± 2.23%
same,inhibition at 31.25 µg/mL,[3]; 288 h,30.5 ± 3.55%
same,inhibition at 62.5 µg/mL,[3]; 288 h,47.3 ± 0.81%
same,inhibition at 125 µg/mL,[3]; 288 h,54.5 ± 1.01%
same,inhibition at 250 µg/mL,[3]; 288 h,66.5 ± 0.9%
same,inhibition at 7.81 µg/mL,[3]; […],10.4 ± 2.05%
same,inhibition at 15.63 µg/mL,[3]; […],31.7 ± 7.1%
same,inhibition at 31.25 µg/mL,[3]; […],41.8 ± 2.47%
same,inhibition at 62.5 µg/mL,[3]; […],45.2 ± 2.47%
same,inhibition at 125 µg/mL,[3]; […],52.5 ± 1.89%
same,inhibition at 250 µg/mL,[3]; […],64.7 ± 2.28%
same,IC50,"[3]; read-out: IC50, production of HBeAg",21 to 78 µg/mL
same,inhibition at 7.81 µg/mL,[4]; 96 h,17.2%
same,inhibition at 15.63 µg/mL,[4]; 96 h,26%
same,inhibition at 31.25 µg/mL,[4]; 96 h,37.2 ± 2.86%
same,inhibition at 62.5 µg/mL,[4]; 96 h,47.5 ± 1.17%
same,inhibition at 125 µg/mL,[4]; 96 h,57%
same,inhibition at 250 µg/mL,[4]; 96 h,62.3 ± 2.22%
same,inhibition at 7.81 µg/mL,[4]; 288 h,24.2 ± 4.63%
same,inhibition at 15.63 µg/mL,[4]; 288 h,31.4 ± 3.2%
same,inhibition at 31.25 µg/mL,[4]; 288 h,36.1%
same,inhibition at 62.5 µg/mL,[4]; 288 h,50.1 ± 1.28%
same,inhibition at 125 µg/mL,[4]; 288 h,58.3%
same,inhibition at 250 µg/mL,[4]; 288 h,66.6%
same,inhibition at 7.81 µg/mL,[4]; […],18.5%
same,inhibition at 15.63 µg/mL,[4]; […],27.6%
same,inhibition at 31.25 µg/mL,[4]; […],35.8 ± 1.9%
same,inhibition at 62.5 µg/mL,[4]; […],46.7 ± 2.03%
same,inhibition at 125 µg/mL,[4]; […],55 ± 2.08%
same,inhibition at 250 µg/mL,[4]; […],68.8 ± 4.68%
same,IC50,"[4]; read-out: IC50, production of HBsAg",21 to 165 µg/mL
same,IC50,[4]; read-out: IC50 for inhibition of production of HBsAg,21 to 165 µg/mL
same,MTD,[5],> 4000 mg/kg
same,cytotoxicity to MT4 cells,[6],markedly cytotoxic
same,proliferation of lymphocyte induced by Con A,[7],enhance the proliferation of lymphocyte induced by Con A in a degree near to that of AZT; also recorded: enhance the proliferation of lymphocyte of mice infected with MuLV
